Data as given in patent US11491100B2, “Dermal composition comprising chelator and base” (Primal Therapies, Inc., priority 2013, dated 2022).

assay: Ranking of candidate chelator and base agents by potency score; parameters: key: 1 = most desired, 3 = least desired; conditions: not given
Description: Methods of selecting base and chelator compositions depend on use. Compositions may be determined by ranking base, chelator and enhancer agents, from most desired to least desired, for multiple parameters such as safety, solubility, compatibility, pH, potency, taste, consistency, smell and others.
Non-toxic chelator and base compositions may be ranked according to the desired parameters of potency and approved-for-oral-consumption. A desired parameter such as potency for a candidate chelator or base may be given a score of “1” for most desired and a score of “3” for least desired. In one embodiment, candidate chelators, bases and enhancers may be ranked by FDA approval for oral consumption. Agents with a score of “1” may have approval for the desired indication and a score of “3” may not have approval or may not be approved for the desired indication. The resultant overall score may be tabulated and may be used to facilitate selection.
Microbes were cultured in growth media and plated at 10^3 CFU/well in a 96 well microtiter plate and cultured for 24 h. Wells were then treated with 10-50 μL of media only as control or with media+chelator agents, base agents, acid agents, neutral agents or enhancer agents for 30 min at RT followed by repleation in […] of fresh RPMI pH 7.2. Plates were then incubated for an additional 48-72 h prior to harvest. Wells were washed 3× in PBS and residual biofilm was stained using crystal violet. Wells were washed 4× in PBS and the amount of retained stain was measured. […] Synergistic effects were evaluated and numerous compounds were examined for their ability to synergistically act with chelators to inhibit biofilm formation (examples of some test compounds analyzed for synergy with chelators are presented in Table 2).
Screens of base components to use in compositions comprising chelator were performed. Briefly, the pH of S. mutans cultures were measured 24 and 48 hr post administration of chelator and candidate base components. Combinations of chelator, base and enhancer agents were also evaluated for affecting metabolic activity and/or metabolism of S. mutans (FIG. 3).

Compound | POTENCY (score 1-3)
NCCCC[C@H](N)C(=O)O [Lysine] | 2

same assay, conditions: base agents that may be used in combination with chelators

Compound | POTENCY (score 1-3)
OC[C@H]1O[C@H](O[C@H]2[C@H](O)[C@@H](O)[C@H](O)O[C@@H]2CO)[C@H](O)[C@@H](O)[C@@H]1O [D-maltose] | 1
O=P([O-])([O-])O.[Ca+2] [Dibasic calcium phosphate] | 3
NC(N)=Nc1nc(CSCCC(N)=NS(N)(=O)=O)cs1 [Famotidine, reference compound] | 1
Cc1ncc(COP(=O)(O)O)c(C=O)c1O [Pyridoxal-5-phosphate] | 1
Cc1ncc(CO)c(CN)c1O [Pyridoxamine] | 1
Cc1ncc(CO)c(CO)c1O [Pyridoxine] | 1
CNC(=C[N+](=O)[O-])NCCSCc1ccc(CN(C)C)o1 [Remitidine, reference compound] | 1
OCN(CO)CO [Tris (hydroxymethyl) amine] | 2
NC(CO)(CO)CO [Tris amine] | 2
O=c1cc[nH]c(=O)[nH]1 [Uracil] | 3
Lysozyme | 1
Vitamin B12 | 2
Vitamin K | 1
protamine sulfate | 2

same assay, conditions: chelators that may be used in combination with base agents

Compound | POTENCY (score 1-3)
COc1cc(/C=C/C(=O)CC(=O)/C=C/c2ccc(O)c(OC)c2)ccc1O [Curcumin] | 2
O=S(=O)(O)CC(S)CS (centres unmarked) [DMPS] | 1
O=C(O)[C@@H](S)[C@@H](S)C(=O)O [DMSA] | 1
CC(=O)N(O)CCCCCNC(=O)CCC(=O)N(O)CCCCCNC(=O)CCC(=O)N(O)CCCCCN [Deferasiroxamine B] | 1
O=C(O[C@@H]1Cc2c(O)cc(O)cc2O[C@@H]1c1cc(O)c(O)c(O)c1)c1cc(O)c(O)c(O)c1 [EGCG] | 1
O=C(O)CN(CCOCCOCCN(CC(=O)O)CC(=O)O)CC(=O)O [EGTA] | 1
O=P(O)(O)O[C@H]1[C@H](OP(=O)(O)O)[C@@H](OP(=O)(O)O)[C@H](OP(=O)(O)O)[C@@H](OP(=O)(O)O)[C@H]1OP(=O)(O)O [Inositol hexaphosphate] | 2
O=c1c(O)c(-c2ccc(O)c(O)c2)oc2cc(O)cc(O)c12 [Quercetin] | 1
Oc1ccc(C=Cc2cc(O)cc(O)c2)cc1 [Resveratrol] | 2
CC(=O)N(O)CCC[C@@H]1NC(=O)[C@H](CCCN(O)C(C)=O)NC1=O [Rhodotorulic acid] | 1
O=C(OC[C@H]1O[C@@H](OC(=O)c2cc(O)c(O)c(OC(=O)c3cc(O)c(O)c(O)c3)c2)[C@H](OC(=O)c2cc(O)c(O)c(OC(=O)c3cc(O)c(O)c(O)c3)c2)[C@@H](OC(=O)c2cc(O)c(O)c(OC(=O)c3cc(O)c(O)c(O)c3)c2)[C@@H]1OC(=O)c1cc(O)c(O)c(OC(=O)c2cc(O)c(O)c(O)c2)c1)c1cc(O)c(O)c(OC(=O)c2cc(O)c(O)c(O)c2)c1 [Tannic acid] | 1
Anachelins | 1
Chlorophylls | 1
Cyclodextrins | 1
Deferoxamines | 1
Ferrioxamines | 1
Vitamin B12 | 1
